{
  "source": "patent US10370366B2",
  "about": "(Flatley Discovery Lab, LLC, priority 2013, dated 2019)",
  "biological_target": "T1, human F508del CFTR (Homo sapiens, UniProt P13569, DEL508-508)",
  "T1 construct": "expressed in transfected cells; host or cells: Fisher Rat Thyroid (FRT) cells",
  "T1 sequence (P13569 with tags, fused parts or gaps DEL508-508)": "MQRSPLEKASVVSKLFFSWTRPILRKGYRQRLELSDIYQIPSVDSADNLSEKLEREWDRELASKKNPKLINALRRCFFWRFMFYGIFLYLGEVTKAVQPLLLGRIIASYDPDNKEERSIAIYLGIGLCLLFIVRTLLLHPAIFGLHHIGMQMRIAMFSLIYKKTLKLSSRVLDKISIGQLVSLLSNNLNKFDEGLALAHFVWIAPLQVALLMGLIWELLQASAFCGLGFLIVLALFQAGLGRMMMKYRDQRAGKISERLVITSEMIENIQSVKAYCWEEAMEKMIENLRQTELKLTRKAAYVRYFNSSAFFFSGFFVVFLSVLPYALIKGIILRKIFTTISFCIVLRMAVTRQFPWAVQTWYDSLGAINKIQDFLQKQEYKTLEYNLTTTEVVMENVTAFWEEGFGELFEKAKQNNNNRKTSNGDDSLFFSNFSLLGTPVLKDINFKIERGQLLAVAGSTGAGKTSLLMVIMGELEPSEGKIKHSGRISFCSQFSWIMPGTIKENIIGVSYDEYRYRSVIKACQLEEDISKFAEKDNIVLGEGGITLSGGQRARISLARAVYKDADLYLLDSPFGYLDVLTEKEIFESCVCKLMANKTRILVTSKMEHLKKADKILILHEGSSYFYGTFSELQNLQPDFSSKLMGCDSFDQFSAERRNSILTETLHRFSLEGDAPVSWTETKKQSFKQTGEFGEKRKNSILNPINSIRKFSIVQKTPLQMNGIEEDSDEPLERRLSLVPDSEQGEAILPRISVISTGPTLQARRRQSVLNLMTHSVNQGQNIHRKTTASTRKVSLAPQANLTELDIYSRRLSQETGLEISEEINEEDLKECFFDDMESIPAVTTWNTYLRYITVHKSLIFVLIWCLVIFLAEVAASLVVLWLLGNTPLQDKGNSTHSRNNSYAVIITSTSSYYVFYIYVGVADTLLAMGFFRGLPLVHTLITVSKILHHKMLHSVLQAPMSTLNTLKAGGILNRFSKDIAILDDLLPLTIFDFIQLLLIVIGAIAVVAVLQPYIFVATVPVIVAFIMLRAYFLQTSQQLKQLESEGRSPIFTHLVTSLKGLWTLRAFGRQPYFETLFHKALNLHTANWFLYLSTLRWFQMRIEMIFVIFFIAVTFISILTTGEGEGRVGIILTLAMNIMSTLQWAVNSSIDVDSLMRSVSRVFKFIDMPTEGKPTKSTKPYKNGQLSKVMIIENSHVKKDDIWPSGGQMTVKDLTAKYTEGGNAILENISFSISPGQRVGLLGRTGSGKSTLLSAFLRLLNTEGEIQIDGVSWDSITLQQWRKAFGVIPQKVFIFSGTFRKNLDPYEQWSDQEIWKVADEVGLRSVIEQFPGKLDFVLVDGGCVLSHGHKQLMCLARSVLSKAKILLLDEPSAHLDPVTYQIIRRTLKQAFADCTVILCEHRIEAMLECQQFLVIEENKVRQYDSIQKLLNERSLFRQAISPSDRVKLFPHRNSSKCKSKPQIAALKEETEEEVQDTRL",
  "test": "CFTR-YFP High Throughput Assay",
  "format": "cell-based",
  "conditions": "FRT cells expressing human F508del CFTR and YFP; for Emax: EMax normalized to the positive control, read-out: % Efficacy",
  "summary_of_the_method": "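Corrector mode: 24-26 h compound exposure (2 nM-40 μM, 37° C) of FRT cells carrying human F508del CFTR and YFP-H148Q/I152L, followed by washing and 60-120 min RT stimulation with 20 μM forskolin and 30 μM P3. CFTR activity is the least-squares-fitted rate of YFP quenching (Ex 500/Em 540 nm) after iodide addition.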",
  "data": [
    {"smiles": "CCN(C(=O)c1nn(-c2ccc(C)cc2)c(=O)c2c1c1ccccc1n2C)C1CC1", "note": "[Example 160, N-cyclopropyl-N-ethyl-5-methyl-4-oxo-3-(p-tolyl)-4,5-dihydro-3H-pyridazino[4,5-b]indole-1-carboxamide]", "values": [
      {"measurement": "Emax", "result": "30 to 80", "unit": "%"}
    ]},
    {"smiles": "Cc1ccc(-n2nc(C(=O)N3CCN(Cc4ccccc4)CC3)c3c4ccccc4n(C)c3c2=O)cc1", "note": "[Example 161, 1-(4-benzylpiperazine-1-carbonyl)-5-methyl-3-(p-tolyl)-3H-pyridazino[4,5-b]indol-4(5H)-one]", "values": [
      {"measurement": "Emax", "result": "30 to 80", "unit": "%"}
    ]},
    {"smiles": "CCN(C(=O)c1nn(-c2ccccc2)c(=O)c2c1c1ccccc1n2C)c1ncccn1", "note": "[Example 162, N-ethyl-5-methyl-4-oxo-3-phenyl-N-(pyrimidin-2-yl)-4,5-dihydro-3H-pyridazino[4,5-b]indole-1-carboxamide]", "values": [
      {"measurement": "Emax", "result": "30 to 80", "unit": "%"}
    ]},
    {"smiles": "Cc1ccc(-n2nc(C(=O)N(CC(=O)O)c3ccccc3)c3c4ccccc4n(C)c3c2=O)cc1", "note": "[Example 163, 2-(5-methyl-4-oxo-N-phenyl-3-(p-tolyl)-4,5-dihydro-3H-pyridazino[4,5-b]indole-1-carboxamido)acetic acid]", "values": [
      {"measurement": "Emax", "result": "30 to 80", "unit": "%"}
    ]},
    {"smiles": "CCN(C(=O)c1nn(-c2ccccc2)c(=O)c2c1c1ccccc1n2C)c1ncnc2c1cnn2C", "note": "[Example 164, N-ethyl-5-methyl-N-(1-methyl-1H-pyrazolo[3,4-d]pyrimidin-4-yl)-4-oxo-3-phenyl-4,5-dihydro-3H-pyridazino[4,5-b]indole-1-carboxamide]", "values": [
      {"measurement": "Emax", "result": "30 to 80", "unit": "%"}
    ]},
    {"smiles": "CCN(C(=O)c1nn(-c2ccc(C)cc2)c(=O)c2c1c1cc(Cl)ccc1n2C)c1ccccc1", "note": "[Example 165, 8-chloro-N-ethyl-5-methyl-4-oxo-N-phenyl-3-(p-tolyl)-4,5-dihydro-3H-pyridazino[4,5-b]indole-1-carboxamide]", "values": [
      {"measurement": "Emax", "result": "30 to 80", "unit": "%"},
      {"measurement": "EC50", "result": "< 10", "unit": "µM"}
    ]},
    {"smiles": "CCN(C(=O)c1nn(-c2ccc(C)cc2)c(=O)c2c1c1ccc(Cl)cc1n2C)c1ccccc1", "note": "[Example 166, 7-chloro-N-ethyl-5-methyl-4-oxo-N-phenyl-3-(p-tolyl)-4,5-dihydro-3H-pyridazino[4,5-b]indole-1-carboxamide]", "values": [
      {"measurement": "Emax", "result": "30 to 80", "unit": "%"},
      {"measurement": "EC50", "result": "< 10", "unit": "µM"}
    ]},
    {"smiles": "CCN(C(=O)c1nn(-c2ccccn2)c(=O)c2c1c1ccccc1n2C)c1ccccc1", "note": "[Example 167, N-ethyl-5-methyl-4-oxo-N-phenyl-3-(pyridin-2-yl)-4,5-dihydro-3H-pyridazino[4,5-b]indole-1-carboxamide]", "values": [
      {"measurement": "Emax", "result": "30 to 80", "unit": "%"}
    ]},
    {"smiles": "CCN(C(=O)c1nn(-c2cccnc2)c(=O)c2c1c1ccccc1n2C)c1ccccc1", "note": "[Example 168]", "values": [
      {"measurement": "Emax", "result": "30 to 80", "unit": "%"}
    ]},
    {"smiles": "CCN(C(=O)c1nn(-c2ccncc2)c(=O)c2c1c1ccccc1n2C)c1ccccc1", "note": "[Example 169, N-ethyl-5-methyl-4-oxo-N-phenyl-3-(pyridin-4-yl)-4,5-dihydro-3H-pyridazino[4,5-b]indole-1-carboxamide]", "values": [
      {"measurement": "Emax", "result": "30 to 80", "unit": "%"}
    ]},
    {"smiles": "CCN(C(=O)c1nn(-c2nccs2)c(=O)c2c1c1ccccc1n2C)c1ccccc1", "note": "[Example 170, N-ethyl-5-methyl-4-oxo-N-phenyl-3-(thiazol-2-yl)-4,5-dihydro-3H-pyridazino[4,5-b]indole-1-carboxamide]", "values": [
      {"measurement": "Emax", "result": "30 to 80", "unit": "%"}
    ]},
    {"smiles": "CCN(C(=O)c1nn(-c2ncccn2)c(=O)c2c1c1ccccc1n2C)c1ccccc1", "note": "[Example 171, N-ethyl-5-methyl-4-oxo-N-phenyl-3-(pyrimidin-2-yl)-4,5-dihydro-3H-pyridazino[4,5-b]indole-1-carboxamide]", "values": [
      {"measurement": "Emax", "result": "10 to 30", "unit": "%"},
      {"measurement": "EC50", "result": "> 20", "unit": "µM"}
    ]},
    {"smiles": "CCN(C(=O)c1nn(-c2nc3ccccc3s2)c(=O)c2c1c1ccccc1n2C)c1ccccc1", "note": "[Example 172, 3-(benzo[d]thiazol-2-yl)-N-ethyl-5-methyl-4-oxo-N-phenyl-4,5-dihydro-3H-pyridazino[4,5-b]indole-1-carboxamide]", "values": [
      {"measurement": "Emax", "result": "10 to 30", "unit": "%"}
    ]},
    {"smiles": "CCN(C(=O)c1nn(-c2nc3ccccc3n2C)c(=O)c2c1c1ccccc1n2C)c1ccccc1", "note": "[Example 173, N-ethyl-5-methyl-3-(1-methyl-1H-benzo[d]imidazol-2-yl)-4-oxo-N-phenyl-4,5-dihydro-3H-pyridazino[4,5-b]indole-1-carboxamide]", "values": [
      {"measurement": "Emax", "result": "10 to 30", "unit": "%"}
    ]},
    {"smiles": "CCN(C(=O)c1nn(-c2ccccc2F)c(=O)c2c1c1ccccc1n2C)c1ccccc1", "note": "[Example 174, N-ethyl-3-(2-fluorophenyl)-5-methyl-4-oxo-N-phenyl-4,5-dihydro-3H-pyridazino[4,5-b]indole-1-carboxamide]", "values": [
      {"measurement": "Emax", "result": "30 to 80", "unit": "%"}
    ]},
    {"smiles": "CCN(C(=O)c1nn(-c2ccccc2)c(=O)c2c1c1ccccc1n2C)c1cccc(F)c1", "note": "[Example 175, N-ethyl-N-(3-fluorophenyl)-5-methyl-4-oxo-3-phenyl-4,5-dihydro-3H-pyridazino[4,5-b]indole-1-carboxamide]", "values": [
      {"measurement": "Emax", "result": "30 to 80", "unit": "%"},
      {"measurement": "EC50", "result": "> 20", "unit": "µM"}
    ]},
    {"smiles": "CCN(C(=O)c1nn(-c2cnc3ccccc3c2)c(=O)c2c1c1ccccc1n2C)c1ccccc1", "note": "[Example 177, N-ethyl-5-methyl-4-oxo-N-phenyl-3-(quinolin-3-yl)-4,5-dihydro-3H-pyridazino[4,5-b]indole-1-carboxamide]", "values": [
      {"measurement": "Emax", "result": "30 to 80", "unit": "%"}
    ]},
    {"smiles": "CCN(C(=O)c1nn(-c2ccc(Cl)cc2)c(=O)c2c1c1ccccc1n2C)c1ccccc1", "note": "[Example 178, 3-(4-chlorophenyl)-N-ethyl-5-methyl-4-oxo-N-phenyl-4,5-dihydro-3H-pyridazino[4,5-b]indole-1-carboxamide]", "values": [
      {"measurement": "Emax", "result": "30 to 80", "unit": "%"}
    ]},
    {"smiles": "CCN(C(=O)c1nn(-c2ccc(OC)cc2)c(=O)c2c1c1ccccc1n2C)c1ccccc1", "note": "[Example 179, N-ethyl-3-(4-methoxyphenyl)-5-methyl-4-oxo-N-phenyl-4,5-dihydro-3H-pyridazino[4,5-b]indole-1-carboxamide]", "values": [
      {"measurement": "Emax", "result": "30 to 80", "unit": "%"},
      {"measurement": "EC50", "result": "> 20", "unit": "µM"}
    ]},
    {"smiles": "CCN(C(=O)c1nn(-c2ccc(C)cn2)c(=O)c2c1c1ccccc1n2C)c1ccccc1", "note": "[Example 180, N-ethyl-5-methyl-3-(5-methylpyridin-2-yl)-4-oxo-N-phenyl-4,5-dihydro-3H-pyridazino[4,5-b]indole-1-carboxamide]", "values": [
      {"measurement": "Emax", "result": "10 to 30", "unit": "%"}
    ]},
    {"smiles": "CCN(C(=O)c1nn(-c2ccccc2)c(=O)c2c1c1ccccc1n2C)c1cccc(Cl)c1", "note": "[Example 181, N-(3-chlorophenyl)-N-ethyl-5-methyl-4-oxo-3-phenyl-4,5-dihydro-3H-pyridazino[4,5-b]indole-1-carboxamide]", "values": [
      {"measurement": "Emax", "result": "30 to 80", "unit": "%"}
    ]},
    {"smiles": "CCN(C(=O)c1nn(-c2ccc(C)cc2)c(=O)c2c1c1ccccc1n2C)c1ccc2c(c1)OC(F)(F)O2", "note": "[Example 182, N-(2,2-difluorobenzo[d][1, 3]dioxol-5-yl)-N-ethyl-5-methyl-4-oxo-3-(p-tolyl)-4,5-dihydro-3H-pyridazino[4,5-b]indole-1-carboxamide]", "values": [
      {"measurement": "Emax", "result": "30 to 80", "unit": "%"}
    ]},
    {"smiles": "CCN(C(=O)c1nn(-c2ccc(C)cc2)c(=O)c2c1c1ccccc1n2C)c1cc(Cl)ccc1C(=O)O", "note": "[Example 183, 4-chloro-2-(N-ethyl-5-methyl-4-oxo-3-(p-tolyl)-4,5-dihydro-3H-pyridazino[4,5-b]indole-1-carboxamido)benzoic acid]", "values": [
      {"measurement": "Emax", "result": "30 to 80", "unit": "%"}
    ]},
    {"smiles": "Cc1ccc(-n2nc(C(=O)Nc3cc(Cl)ccc3C(=O)O)c3c4ccccc4n(C)c3c2=O)cc1", "note": "[Example 184, 4-chloro-2-(5-methyl-4-oxo-3-(p-tolyl)-4,5-dihydro-3H-pyridazino[4,5-b]indole-1-carboxamido)benzoic acid]", "values": [
      {"measurement": "Emax", "result": "30 to 80", "unit": "%"},
      {"measurement": "EC50", "result": "> 20", "unit": "µM"}
    ]},
    {"smiles": "CCN(C(=O)c1nn(C2CCOCC2)c(=O)c2c1c1ccccc1n2C)c1ccccc1", "note": "[Example 185, N-ethyl-5-methyl-4-oxo-N-phenyl-3-(tetrahydro-2H-pyran-4-yl)-4,5-dihydro-3H-pyridazino[4,5-b]indole-1-carboxamide]", "values": [
      {"measurement": "Emax", "result": "30 to 80", "unit": "%"},
      {"measurement": "EC50", "result": "< 10", "unit": "µM"}
    ]},
    {"smiles": "CC(C)N(C(=O)c1nn(-c2ccccn2)c(=O)c2c1c1ccccc1n2C)c1ccccc1", "note": "[Example 186, N-isopropyl-5-methyl-4-oxo-N-phenyl-3-(pyridin-2-yl)-4,5-dihydro-3H-pyridazino[4,5-b]indole-1-carboxamide]", "values": [
      {"measurement": "Emax", "result": "10 to 30", "unit": "%"},
      {"measurement": "EC50", "result": "< 10", "unit": "µM"}
    ]},
    {"smiles": "CCN(C(=O)c1nn(-c2ccc(C)cc2)c(=O)c2c1c1cc(OC)ccc1n2C)c1ccccc1", "note": "[Example 187, N-ethyl-8-methoxy-5-methyl-4-oxo-N-phenyl-3-(p-tolyl)-4,5-dihydro-3H-pyridazino[4,5-b]indole-1-carboxamide]", "values": [
      {"measurement": "Emax", "result": "30 to 80", "unit": "%"},
      {"measurement": "EC50", "result": "> 20", "unit": "µM"}
    ]},
    {"smiles": "CCN(C(=O)c1nn(-c2ccc(C)cc2)c(=O)c2c1c1ccc(OC)cc1n2C)c1ccccc1", "note": "[Example 188, N-ethyl-7-methoxy-5-methyl-4-oxo-N-phenyl-3-(p-tolyl)-4,5-dihydro-3H-pyridazino[4,5-b]indole-1-carboxamide]", "values": [
      {"measurement": "Emax", "result": "30 to 80", "unit": "%"},
      {"measurement": "EC50", "result": "> 20", "unit": "µM"}
    ]},
    {"smiles": "CCN(C(=O)c1nn(-c2ccc(C)cc2)c(=O)c2c1c1cccc(OC)c1n2C)c1ccccc1", "note": "[Example 189, N-ethyl-6-methoxy-5-methyl-4-oxo-N-phenyl-3-(p-tolyl)-4,5-dihydro-3H-pyridazino[4,5-b]indole-1-carboxamide]", "values": [
      {"measurement": "Emax", "result": "30 to 80", "unit": "%"},
      {"measurement": "EC50", "result": "> 20", "unit": "µM"}
    ]},
    {"smiles": "CC(C)N(C(=O)c1nn(-c2ccccc2)c(=O)c2c1c1ccccc1n2C)c1ccc(Cl)cc1", "note": "[Example 190, N-(4-chlorophenyl)-N-isopropyl-5-methyl-4-oxo-3-phenyl-4,5-dihydro-3H-pyridazino[4,5-b]indole-1-carboxamide]", "values": [
      {"measurement": "Emax", "result": "30 to 80", "unit": "%"},
      {"measurement": "EC50", "result": "< 10", "unit": "µM"}
    ]},
    {"smiles": "CC(C)N(C(=O)c1nn(-c2cnc3ccccc3c2)c(=O)c2c1c1ccccc1n2C)c1ccccc1", "note": "[Example 191, N-isopropyl-5-methyl-4-oxo-N-phenyl-3-(quinolin-3-yl)-4,5-dihydro-3H-pyridazino[4,5-b]indole-1-carboxamide]", "values": [
      {"measurement": "Emax", "result": "30 to 80", "unit": "%"},
      {"measurement": "EC50", "result": "> 20", "unit": "µM"}
    ]},
    {"smiles": "CCN(C(=O)c1nn(-c2ccc(OC)c(Cl)c2)c(=O)c2c1c1ccccc1n2C)c1ccccn1", "note": "[Example 192, 3-(3-chloro-4-methoxyphenyl)-N-ethyl-5-methyl-4-oxo-N-(pyridin-2-yl)-4,5-dihydro-3H-pyridazino[4,5-b]indole-1-carboxamide]", "values": [
      {"measurement": "Emax", "result": "30 to 80", "unit": "%"},
      {"measurement": "EC50", "result": "< 10", "unit": "µM"}
    ]}
  ]
}
